Results published in patent publication US20100048462A1, “TRUNCATED PTH PEPTIDES WITH A CYCLIC CONFORMATION” (Zealand Pharma A/S, priority 2006, published 2010).
Bridge positions count the residues as written; N and C are the ends. Square brackets hold non-standard residues; d marks the D form. Peptide text beside a SMILES is read from it. hArg = N=C(N)NCCCC[C@H](N)C(=O)O; Ac6c = NC1(C(=O)O)CCCCC1; Ac5c = NC1(C(=O)O)CCCC1; Nva = CCC[C@H](N)C(=O)O; Abu = CC[C@H](N)C(=O)O; Aib = CC(C)(N)C(=O)O

Target: T1, Saos-2 PTH1R (Homo sapiens, UniProt Q03431)
T1 construct: endogenous in cells; host or cells: Saos-2
T1 sequence (Q03431 27-593): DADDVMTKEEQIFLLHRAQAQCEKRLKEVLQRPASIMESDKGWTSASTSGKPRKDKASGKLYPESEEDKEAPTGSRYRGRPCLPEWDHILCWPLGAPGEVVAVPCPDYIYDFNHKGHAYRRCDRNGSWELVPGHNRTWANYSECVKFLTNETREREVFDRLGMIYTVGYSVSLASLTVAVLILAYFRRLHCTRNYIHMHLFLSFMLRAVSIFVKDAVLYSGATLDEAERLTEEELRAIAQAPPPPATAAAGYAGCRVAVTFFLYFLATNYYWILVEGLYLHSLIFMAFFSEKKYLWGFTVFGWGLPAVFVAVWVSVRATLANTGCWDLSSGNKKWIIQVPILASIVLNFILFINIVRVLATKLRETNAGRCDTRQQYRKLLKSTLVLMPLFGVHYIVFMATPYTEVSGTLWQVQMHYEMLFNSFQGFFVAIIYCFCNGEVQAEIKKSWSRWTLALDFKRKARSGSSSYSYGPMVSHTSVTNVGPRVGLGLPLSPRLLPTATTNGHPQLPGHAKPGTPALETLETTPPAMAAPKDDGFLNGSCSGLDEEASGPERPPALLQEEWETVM
Assay: cAMP-efficacy assay in Saos-2 cells
Format: cell-based
Conditions: for EC50: cAMP, 100 μM IBMX, 37° C. 15 min, suffix of label = salt tested; for Emax ± SEM: relative effect to the control (SEQ ID NO: 32)
Procedure: Peptides were dissolved in phosphate buffered saline and further diluted in Tyrode's buffer (TB, Sigma-Aldrich) containing 0.1% BSA and 100 μM isobutyl-methyl-xanthine (IBMX, Sigma-Aldrich). Saos-2 cells were seeded at 50,000 cells/well in 96-microtiter plates and grown for two days before the efficacy assays. On the day of analysis, the growth medium was carefully removed by suction. Cells were washed once with 200 μl TB/0.1% BSA. The buffer was replaced with 100 μl reaction mixture (±test peptide), and incubated at 37° C. for 15 min. The reaction was stopped by addition of 25 μl of ice-cold 0.5 M HCl. Cells were in the following incubated on ice for 60 min. 75 μl acetate-buffer, pH6.2, was added to each well of a 96-well cAMP FlashPlate (Perkin-Elmer). […] FlashPlates were incubated overnight at 4° C., emptied by suction and counted in a TopCounter (Packard).
Determinations were performed in single determinations or triplicates at all doses. […] Standards were included as single determinations, duplicates or triplicates in each experiment, preferentially on each plate.
Concentration-dependent cAMP responses were imported into GraphPad Prism vers. 4 (GraphPad Software), transformed and plotted. […] Thus, a four-parameter logistic equation was used for determination of the EC50 values. Curves were fitted with a function for sigmoidal dose response curve (variable slope) non-linear fit Y=Bottom+(Top-Bottom)/(1+10̂((LogEC50−X)*HillSlope)) where X is the logarithm of concentration and Y is the response. Y starts at Bottom and goes to Top with a sigmoid shape. pEC50, Hill-coefficient and the maximally inducible concentration of cAMP (Emax) were evaluated.
Overall statistical differences were analyzed with Statistica (Statsoft) using one-way ANOVA. Post-hoc comparisons were made by the use of Fisher's Least Significance Test. Results were considered significant, when p was lower than 0.05.

CC[C@H](C)[C@H](NC(=O)[C@H](CCC(=O)O)NC(=O)C(C)(C)NC(=O)[C@@H](NC(=O)C1(N)CCCC1)C(C)C)C(=O)N[C@@H](CCC(N)=O)C(=O)N[C@@H](CC(C)C)C(=O)N[C@@H](CCSC)C(=O)N[C@@H](Cc1c[nH]cn1)C(=O)N[C@@H](CCC(N)=O)C(=O)N[C@@H](CCCCNC(=N)N)C(=O)N[C@@H](C)C(=O)N[C@H]1CCCCNC(=O)C[C@@H](C(N)=O)NC(=O)[C@H](CC(N)=O)NC(=O)[C@H](CC(C)C)NC(=O)[C@H](Cc2c[nH]c3ccccc23)NC1=O [2A, H-Ac5c-Val-Aib-Glu-Ile-Gln-Leu-Met-His-Gln-Har-Ala-Lys( )Trp-Leu-Asn-Asp( )-NH2] (H-[Ac5c]V[Aib]EIQLMHQ[hArg]AKWLND-NH2; lactam 13-17)
EC50: 0.00631 µM
Emax ± SEM: 0.99 ± 0.03

CC[C@H](C)[C@H](NC(=O)[C@H](CCC(=O)O)NC(=O)C(C)(C)NC(=O)[C@@H](NC(=O)C1(N)CCCC1)C(C)C)C(=O)N[C@@H](CCC(N)=O)C(=O)N[C@@H](CC(C)C)C(=O)N[C@@H](CCSC)C(=O)N[C@@H](Cc1c[nH]cn1)C(=O)N[C@@H](CCC(N)=O)C(=O)N[C@@H](CCCCNC(=N)N)C(=O)N[C@@H](C)C(=O)N[C@H]1CCCCNC(=O)C[C@@H](C(N)=O)NC(=O)[C@H](CC(N)=O)NC(=O)[C@H](CC(C)C)NC(=O)[C@H](Cc2c[nH]c3ccccc23)NC1=O [2C, H-Ac5c-Val-Aib-Glu-Ile-Gln-Leu-Met-His-Gln-Har-Ala-Lys( )Trp-Leu-Asn-Asp( )-NH2] (H-[Ac5c]V[Aib]EIQLMHQ[hArg]AKWLND-NH2; lactam 13-17)
EC50: 0.00661 µM
Emax ± SEM: 0.94 ± 0.03

CC[C@H](C)[C@H](NC(=O)[C@H](CCC(=O)O)NC(=O)C(C)(C)NC(=O)[C@@H](NC(=O)C1(N)CCCC1)C(C)C)C(=O)N[C@@H](CCC(N)=O)C(=O)N[C@@H](CC(C)C)C(=O)N[C@@H](CCSC)C(=O)N[C@@H](Cc1c[nH]cn1)C(=O)N[C@@H](CCC(N)=O)C(=O)N[C@@H](CCCCNC(=N)N)C(=O)N[C@@H](C)C(=O)N[C@H]1CCCCNC(=O)C[C@@H](C(N)=O)NC(=O)[C@H](CC(N)=O)NC(=O)[C@H](CC(C)C)NC(=O)[C@H](Cc2c[nH]c3ccccc23)NC1=O [2T, H-Ac5c-Val-Aib-Glu-Ile-Gln-Leu-Met-His-Gln-Har-Ala-Lys( )Trp-Leu-Asn-Asp( )-NH2] (H-[Ac5c]V[Aib]EIQLMHQ[hArg]AKWLND-NH2; lactam 13-17)
EC50: 0.00661 µM
Emax ± SEM: 0.70 ± 0.09

CC[C@H](C)[C@H](NC(=O)[C@H](CCC(=O)O)NC(=O)C(C)(C)NC(=O)[C@@H](NC(=O)C1(N)CCCC1)C(C)C)C(=O)N[C@@H](CCC(N)=O)C(=O)N[C@@H](CC(C)C)C(=O)N[C@@H](CC(C)C)C(=O)N[C@@H](Cc1c[nH]cn1)C(=O)N[C@@H](CCC(N)=O)C(=O)N[C@@H](CCCCNC(=N)N)C(=O)N[C@@H](C)C(=O)N[C@H]1CCCCNC(=O)C[C@@H](C(=O)O)NC(=O)[C@H](CC(N)=O)NC(=O)[C@H](CC(C)C)NC(=O)[C@H](Cc2c[nH]c3ccccc23)NC1=O [SEQ ID NO: 5, H-Ac5c-Val-Aib-Glu-Ile-Gln-Leu-Leu-His-Gln-Har-Ala-Lys( )-Trp-Leu-Asn-Asp( )-OH] (H-[Ac5c]V[Aib]EIQLLHQ[hArg]AKWLND-OH; lactam 13-17)
EC50: 0.0724 µM
Emax ± SEM: 1.16 ± 0.12

CC[C@H](C)[C@H](NC(=O)[C@H](CCC(=O)O)NC(=O)C(C)(C)NC(=O)[C@@H](NC(=O)C1(N)CCCC1)C(C)C)C(=O)N[C@@H](CCC(N)=O)C(=O)N[C@@H](CC(C)C)C(=O)N[C@@H](CCSC)C(=O)N[C@@H](Cc1c[nH]cn1)C(=O)N[C@@H](CCC(N)=O)C(=O)N[C@@H](CCCCNC(=N)N)C(=O)N[C@@H](C)C(=O)N[C@H]1CC(=O)NCCCC[C@@H](C(N)=O)NC(=O)[C@H](CC(N)=O)NC(=O)[C@H](CC(C)C)NC(=O)[C@H](Cc2c[nH]c3ccccc23)NC1=O [SEQ ID NO: 6, H-Ac5c-Val-Aib-Glu-Ile-Gln-Leu-Met-His-Gln-Har-Ala-Asp( )-Trp-Leu-Asn-Lys( )-NH2] (H-[Ac5c]V[Aib]EIQLMHQ[hArg]ADWLNK-NH2; lactam 13-17)
EC50: 0.126 µM
Emax ± SEM: 1.5

CC[C@H](C)[C@H](NC(=O)[C@H](CCC(=O)O)NC(=O)C(C)(C)NC(=O)[C@@H](NC(=O)C1(N)CCCCC1)C(C)C)C(=O)N[C@@H](CCC(N)=O)C(=O)N[C@@H](CC(C)C)C(=O)N[C@@H](CC(C)C)C(=O)N[C@@H](Cc1c[nH]cn1)C(=O)N[C@@H](CCC(N)=O)C(=O)N[C@@H](CCCCNC(=N)N)C(=O)N[C@@H](C)C(=O)N[C@H]1CCCCNC(=O)C[C@@H](C(N)=O)NC(=O)[C@H](CC(N)=O)NC(=O)[C@H](CC(C)C)NC(=O)[C@H](Cc2c[nH]c3ccccc23)NC1=O [SEQ ID NO: 10, H-Ac6c-Val-Aib-Glu-Ile-Gln-Leu-Leu-His-Gln-Har-Ala-Lys( )-Trp-Leu-Asn-Asp( )-NH2] (H-[Ac6c]V[Aib]EIQLLHQ[hArg]AKWLND-NH2; lactam 13-17)
EC50: 0.0126 µM
Emax ± SEM: 1.08 ± 0.06

CC[C@H](N)C(=O)N[C@H](C(=O)NC(C)(C)C(=O)N[C@@H](CCC(=O)O)C(=O)N[C@H](C(=O)N[C@@H](CCC(N)=O)C(=O)N[C@@H](CC(C)C)C(=O)N[C@@H](CC(C)C)C(=O)N[C@@H](Cc1c[nH]cn1)C(=O)N[C@@H](CCC(N)=O)C(=O)N[C@@H](CCCCNC(=N)N)C(=O)N[C@@H](C)C(=O)N[C@H]1CCCCNC(=O)C[C@@H](C(N)=O)NC(=O)[C@H](CC(N)=O)NC(=O)[C@H](CC(C)C)NC(=O)[C@H](Cc2c[nH]c3ccccc23)NC1=O)[C@@H](C)CC)C(C)C [SEQ ID NO: 11, H-Abu-Val-Aib-Glu-Ile-Gln-Leu-Leu-His-Gln-Har-Ala-Lys( )-Trp-Leu-Asn-Asp( )-NH2] (H-[Abu]V[Aib]EIQLLHQ[hArg]AKWLND-NH2; lactam 13-17)
EC50: 0.0676 µM
Emax ± SEM: 1.04 ± 0.05

CCC[C@H](N)C(=O)N[C@H](C(=O)NC(C)(C)C(=O)N[C@@H](CCC(=O)O)C(=O)N[C@H](C(=O)N[C@@H](CCC(N)=O)C(=O)N[C@@H](CC(C)C)C(=O)N[C@@H](CC(C)C)C(=O)N[C@@H](Cc1c[nH]cn1)C(=O)N[C@@H](CCC(N)=O)C(=O)N[C@@H](CCCCNC(=N)N)C(=O)N[C@@H](C)C(=O)N[C@H]1CCCCNC(=O)C[C@@H](C(N)=O)NC(=O)[C@H](CC(N)=O)NC(=O)[C@H](CC(C)C)NC(=O)[C@H](Cc2c[nH]c3ccccc23)NC1=O)[C@@H](C)CC)C(C)C [SEQ ID NO: 12, H-Nva-Val-Aib-Glu-Ile-Gln-Leu-Leu-His-Gln-Har-Ala-Lys( )-Trp-Leu-Asn-Asp( )-NH2] (H-[Nva]V[Aib]EIQLLHQ[hArg]AKWLND-NH2; lactam 13-17)
EC50: 0.102 µM
Emax ± SEM: 1.04 ± 0.03

CC[C@H](C)[C@H](NC(=O)[C@H](CCC(=O)O)NC(=O)C1(NC(=O)[C@@H](NC(=O)C(C)(C)N)C(C)C)CCCC1)C(=O)N[C@@H](CCC(N)=O)C(=O)N[C@@H](CC(C)C)C(=O)N[C@@H](CC(C)C)C(=O)N[C@@H](Cc1c[nH]cn1)C(=O)N[C@@H](CCC(N)=O)C(=O)N[C@@H](CCCCNC(=N)N)C(=O)N[C@@H](C)C(=O)N[C@H]1CCCCNC(=O)C[C@@H](C(N)=O)NC(=O)[C@H](CC(N)=O)NC(=O)[C@H](CC(C)C)NC(=O)[C@H](Cc2c[nH]c3ccccc23)NC1=O [SEQ ID NO: 13, H-Aib-Val-Ac5c-Glu-Ile-Gln-Leu-Leu-His-Gln-Har-Ala-Lys( )-Trp-Leu-Asn-Asp( )-NH2] (H-[Aib]V[Ac5c]EIQLLHQ[hArg]AKWLND-NH2; lactam 13-17)
EC50: 0.0537 µM
Emax ± SEM: 0.96 ± 0.03

CC[C@H](C)[C@H](NC(=O)[C@H](CCC(=O)O)NC(=O)C1(NC(=O)[C@@H](NC(=O)C2(N)CCCC2)C(C)C)CCCC1)C(=O)N[C@@H](CCC(N)=O)C(=O)N[C@@H](CC(C)C)C(=O)N[C@@H](CC(C)C)C(=O)N[C@@H](Cc1c[nH]cn1)C(=O)N[C@@H](CCC(N)=O)C(=O)N[C@@H](CCCCNC(=N)N)C(=O)N[C@@H](C)C(=O)N[C@H]1CCCCNC(=O)C[C@@H](C(N)=O)NC(=O)[C@H](CC(N)=O)NC(=O)[C@H](CC(C)C)NC(=O)[C@H](Cc2c[nH]c3ccccc23)NC1=O [SEQ ID NO: 14, H-Ac5c-Val-Ac5c-Glu-Ile-Gln-Leu-Leu-His-Gln-Har-Ala-Lys( )-Trp-Leu-Asn-Asp( )-NH2] (H-[Ac5c]V[Ac5c]EIQLLHQ[hArg]AKWLND-NH2; lactam 13-17)
EC50: 0.0355 µM
Emax ± SEM: 1.03 ± 0.05
